Assay results reported in patent US20250268925A1, “METHODS OF TREATING MEDICAL CONDITIONS AND INHIBITING LINE1 REVERSE TRANSCRIPTASE USING A SUBSTITUTED ADENINYL-PROPYLOXY PHOSPHONIC ACID OR RELATED COMPOUND” (ROME THERAPEUTICS, INC., priority 2021, published 2025).
pIC50: −log10 of the molar value.

What was measured:
[1] = biological target: T1, LINE1 reverse transcriptase (Homo sapiens, UniProt O00370); assay: Stable artificial-intron Cis LINE1 reporter assay; type: cell-based; set-up: expressed in transfected cells; host or cells: HeLa Tet-On 3G (Takara, cat no 631183)
Description: A stable HeLa Tet-On 3G (Takara, cat no 631183) cell line expressing a bi-directional inducible LINE1 construct was generated as described in Xie, Y. et al. “Cell division promotes efficient retrotransposition in a stable L1 reporter cell line,” Mobile DNA (2013) 4:10. Single cell clones were screened for high Luciferase expression and the highest expression Firefly expressing clone was chosen for compound testing.
Test compounds were serially diluted in DMSO and spotted in 96-well plates. Subsequently the HeLa L1 artificial-intron reporter cells were plated into the compound-containing wells (8,000 cells/well), and the cells were induced for reporter expression with doxycycline (Sigma cat no D9891) at a final concentration of 500 ng/mL. Luminescence was measured 72 h after plating using the Dual-Glo Luciferase Assay System (Promega cat no E2940) following the manufacturer's instructions. The Firefly Luciferase activity (normalized against its activity in a control well without test compound) was used to report LINE1 activity.

[2] = biological target: T1, LINE1 reverse transcriptase; assay: Transient artificial-intron Cis LINE1 reporter assay; type: cell-based; set-up: expressed in transfected cells
Description: Intron-disrupted Firefly luciferase (FLuc) expression cassettes were generated as described by Xie, Y. et al. “Characterization of L1 retrotransposition with high-throughput dual-luciferase assays,” Nucleic Acid Res. (2011) Vol. 39, No. 3, e16. In addition, the plasmid contained an intact Renilla luciferase (RLuc) expression cassette on the vector backbone, in order to normalize transfection efficiency and measure potential cell toxicity.
HEK 293 cells were seeded in 96-well plates at 1,000 cells/well in 55 μL and grown for 24 hours. Cells were transfected with FuGeneHD (Promega) following the manufacturer's protocol. Each well received 0.133 ng plasmid, 0.4 μL FuGeneHD reagent, and 4.5 μL GlutaMAX-I-supplemented Opti-MEM I reduced-serum medium (Invitrogen). Cells were simultaneously treated with test compound serially diluted starting at 100 μM in a 3-fold dilution dose response.
Luminescence was measured using the Dual-Glo Luciferase Assay System (Promega) following the manufacturer's instructions. The ratio between FLuc and RLuc gene expression (each of which was normalized against its expression in a control well without test compound) was used to report LINE1 activity.

[3] = CellTiter-Glo cell viability in THP1-Dual KO-TREX1 cells; type: cell-based; details: human, 10 μM compound (highest dose), five days, read-out: CellTiter-Glo average inhibition (cell viability)
Description: (§1) THP1-Dual™ KO-TREX1 cells were purchased from Invivogen (cat #thpd-kotrex). The THP1-Dual™ KO-TREX1 cells were cultured in RPMI 1640, 10% heat-inactivated fetal bovine serum, 25 mM HEPES, 10 μg/mL Blasticidin, and 100 μg/mL Zeocin. THP1-Dual™ KO-TREX1 cells were treated with a dose titration of test compound in the presence of 1 μM 5-aza-2′-deoxycytidine (Sigma, cat #189825). Type 1 Interferon and cell viability were assessed after five days of treatment.
THP1-Dual™ KO-TREX1 cells were treated with 1 μM 5-aza-2′-deoxycytidine. The THP1-Dual™ KO-TREX1 cells (50 μL) were added to each well of the 384-well plate containing test compound titration at 10,000 cells/well. Cells were incubated at 37° C., 5% CO2 in a humidified incubator for five days. […] Luminescence was detected on a plate reader according to manufacturer's instructions. […] Percent induction of interferon was calculated using the following analysis: (Sample−Average DMSO)/(10 μM control reagent−Average DMSO)*100.
The remaining cells were assessed for cell viability by adding 30 μl of CellTiter-Glo (Promega, G9683) solution to each well, and placed on a shaker for 10 minutes at room temperature. Luminescence was detected on a plate reader, according to manufacturer's instructions. Percent inhibition of cell viability using CellTiter-Glo was calculated using the following analysis. […]

Type 1 Interferon = assay: Cellular assay for altering IFN production in THP1 TREX1 KO cells; type: cell-based; details: THP1-Dual KO-TREX1 cells, 1 μM 5-aza-2′-deoxycytidine, five days; direction of effect per figure legend
Description: as §1
Stock solution of test compound was prepared in DMSO followed by a three-fold dilution in DMSO. Additional 50× dilution was prepared in cell culture media for each dilution. 10 μL of diluted test compound was then added to a 384-well plate.
THP1-Dual™ KO-TREX1 cells were treated with 1 μM 5-aza-2′-deoxycytidine. The THP1-Dual™ KO-TREX1 cells (50 μL) were added to each well of the 384-well plate containing test compound titration at 10,000 cells/well. Cells were incubated at 37° C., 5% CO2 in a humidified incubator for five days. On day five, 20 μL of cell supernatant was transferred to a 384-well, white-walled plate, followed by addition to each well of 50 μL of QUANTI-LUC solution containing stabilizer. Luminescence was detected on a plate reader according to manufacturer's instructions. Percent inhibition of interferon was calculated using the following analysis: (Average DMSO−Sample)/(Average DMSO−Average 30 μM control reagent)*100. Percent induction of interferon was calculated using the following analysis: (Sample−Average DMSO)/(10 μM control reagent−Average DMSO)*100.

[4] = biological target: T2, recombinant MBP-tagged LINE1 protein (238-1061) (Homo sapiens, UniProt O00370); assay: Homogeneous time-resolved fluorescence (HTRF) LINE1 RT assay; type: biochemical; details: tetra(sodium) salt; 25° C., 60 minutes
T2 construct: recombinant MBP-tagged LINE1 protein (238-1061); made in house
Description: The LINE1 reverse transcriptase homogeneous time-resolved fluorescence (HTRF) assay was performed with recombinant MBP-tagged LINE1 protein (238-1061) (generated and purified according to procedures in Dai L. et al. BMC Biochemistry 2011; 12:18) in a 384-well format. Test compound was serially diluted in DMSO and further diluted in the assay buffer (50 mM Tris-HCl, 50 mM KCl, 10 mM MgCl2, 10 mM DTT, pH 8.1) to achieve a final DMSO concentration of 1%. The serially diluted compound was mixed with 64 ng/well of LINE1 enzyme, 5 nM of pre-annealed template/biotin-primer pair (synthesized at Generay Biotechnology), 10 nM of Fluorescein-12-dATP fluorescent probe (Perkin Elmer), and 1 μM dGTP/dCTP/dTTP (Thermo Fisher Scientific) in the assay buffer. The template/biotin-primer sequences were as follows:
(§2) After incubating at 25° C. for 60 minutes, the detection reagent (20 mM EDTA with streptavidin-terbium cryptate, Cisbio Bioassay) in the PPI buffer (Cisbio Bioassay) was added, and the mixture was incubated at 25° C. for 30 minutes. At the end of the incubation, fluorescence was read at ex/em=337/485 nm and ex/em=337/520 nm on an Envision 2104 plate reader (Perkin Elmer). The fluorescence ratio at 520/485 nm was used for the calculation. […] The IC50 was calculated by fitting the compound dose inhibition curve with a 4-parameter non-linear regression equation.

[5] = biological target: T3, HERV-K reverse transcriptase (2-596)-8His protein (Homo sapiens, UniProt V9H0F6); assay: Homogeneous time-resolved fluorescence (HTRF) HERV-K RT assay; type: biochemical; details: tetra(sodium) salt; 25° C., 30 minutes
T3 construct: fused on or other part: C-terminal 8His tag
T3 sequence (V9H0F6 entry or part of it): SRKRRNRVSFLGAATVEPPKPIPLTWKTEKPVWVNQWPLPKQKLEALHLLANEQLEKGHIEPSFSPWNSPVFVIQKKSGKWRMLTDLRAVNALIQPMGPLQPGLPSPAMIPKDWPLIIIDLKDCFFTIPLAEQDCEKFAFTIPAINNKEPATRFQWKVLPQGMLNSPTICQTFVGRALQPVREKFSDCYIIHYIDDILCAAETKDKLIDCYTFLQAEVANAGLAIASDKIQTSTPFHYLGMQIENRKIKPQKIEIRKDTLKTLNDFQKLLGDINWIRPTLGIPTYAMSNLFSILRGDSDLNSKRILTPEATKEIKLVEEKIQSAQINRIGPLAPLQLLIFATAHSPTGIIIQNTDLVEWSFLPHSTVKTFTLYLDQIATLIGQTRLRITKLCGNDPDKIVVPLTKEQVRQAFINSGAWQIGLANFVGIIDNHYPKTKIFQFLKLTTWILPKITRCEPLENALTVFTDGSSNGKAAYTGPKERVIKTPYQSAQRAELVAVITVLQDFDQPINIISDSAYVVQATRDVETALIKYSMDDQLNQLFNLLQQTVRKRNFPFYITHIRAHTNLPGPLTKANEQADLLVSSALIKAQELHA
Description: The HERV-K reverse transcriptase homogeneous time-resolved fluorescence (HTRF) assay was performed in a 384-well format with HERV-K reverse transcriptase (2-596)-8His protein. Baculoviruses were created using Bac-to-Bac technology (Invitrogen). pFastBac donor plasmids containing HERV-K reverse transcriptase sequence (NCBI GenBank number AAC63291.1, J. Virology (1999) Vol. 73, No. 3, pp. 2365-2375) were transformed into DH10 Bac cells following the manufacturer's instructions. Recombinant bacmids were then isolated clonally and transfected into SF9 cells with lipofectin. HERV-K reverse transcriptase was expressed in the SF9 insect cells and then purified using immobilized metal affinity chromatography (IMAC) followed by size-exclusion chromatography (SEC). […]
as §2, with “30” for “60”, “20” for “(20”, “cryptate (Cisbio” for “cryptate, Cisbio”, “60” for “30”

[6] = HeLa Tet-On 3G L1 reporter cells, doxycycline 500 ng/mL, 72 h, Firefly luciferase, read-out: IC50
[7] = HEK 293 cells, transient LINE1 reporter, no detectable IC50 when tested at concentrations up to 100 μM, read-out: IC50
[8] = HEK 293 cells, FLuc/RLuc ratio, transient LINE1 reporter, read-out: IC50

Row | pIC50 [1, 6] | SMILES | changes in IFN levels (inhibition or induction of IFN) (Type 1 Interferon) | other results
1 | < 6.30 | Cc1cn([C@H]2C[C@H](N=[N+]=[N-])[C@@H](CO)O2)c(=O)[nH]c1=O [AZT (zidovudine), zidovudine, reference compound] |  | pIC50 [2, 7]: < 4.00
2 |  | CC(C)OC(=O)[C@H](C)N[P@](=O)(CO[C@H](C)Cn1cnc2c(N)ncnc21)Oc1ccccc1 [Compound I-1] | inhibition of IFN | pIC50 [1]: > 7.30; cytotoxicity at 5 days, 10 μM [3]: 57%; pIC50 [2]: > 7.30
3 | < 6.30 | C[C@H](Cn1cnc2c(N)ncnc21)OCP(=O)(O)O [Compound V-1] | inhibition of IFN | pIC50 [2, 8]: < 6.30
4 | 6.30 to 7.30 | CC(C)OC(=O)OCOP(=O)(CO[C@H](C)Cn1cnc2c(N)ncnc21)OCOC(=O)OC(C)C [Compound V-7] |  | pIC50 [2, 8]: > 7.30
5 | < 6.30 | C[C@H](Cc1ccc2c(N)ncnn12)OCP(=O)(O)O [Compound V-105] |  | 
6 | < 6.30 | CC(C)OC(=O)OCOP(=O)(CO[C@H](C)Cc1ccc2c(N)ncnn12)OCOC(=O)OC(C)C [Compound V-106] |  | 
7 |  | Nc1ccn([C@H]2CO[C@@H](CO)S2)c(=O)n1 [apricitabine] |  | pIC50 [2, 7]: < 4.00
8 |  | C[C@H](Cn1cnc2c(N)ncnc21)OCP(=O)(O)OP(=O)(O)OP(=O)(O)O [drawing 1227] |  | pIC50 [4]: 7.15
9 |  | C[C@H](Cn1cnc2c(N)ncnc21)OCP(=O)(O)OP(=O)(O)OP(=O)(O)O [drawing 1228] |  | pIC50 [5]: 7.70
10 | < 6.30 | Nc1ccn([C@@H]2CS[C@H](CO)O2)c(=O)n1 [lamivudine (3TC), lamivudine, reference compound] |  | pIC50 [2, 7]: < 4.00
11 | < 6.30 | Nc1nc(=O)c2ncn([C@@H]3C[C@H](CO)[C@H]3CO)c2[nH]1 [lobucavir, reference compound] |  | pIC50 [2, 7]: < 4.00

Row | SMILES | pIC50 [1, 6] | changes in IFN levels (inhibition or induction of IFN) (Type 1 Interferon) | other results
12 | CC(C)OC(=O)C(C)(C)N[P@](=O)(CO[C@H](C)Cn1cnc2c(N)ncnc21)Oc1ccccc1 [Compound I-20] | > 7.30 | inhibition of IFN | cytotoxicity at 5 days, 10 μM [3]: 65%
13 | CC(C)OC(=O)C(C)(C)N[P@@](=O)(CO[C@H](C)Cn1cnc2c(N)ncnc21)Oc1ccccc1 [Compound I-21] | 6.30 to 7.30 | induction of IFN | 
14 | CC(C)OC(=O)[C@H](C)NP(=O)(CO[C@H](C)Cc1ccc2c(N)ncnn12)Oc1ccccc1 (some centres unmarked) [Compound I-115] | 6.30 to 7.30 | induction of IFN | 
15 | CCCCCCCCCCCCCCCCOCCCOP(=O)(O)CO[C@H](C)Cn1cnc2c(N)ncnc21 [VI-1] | 6.30 to 7.30 | induction of IFN | 
